Assay results taken from US20020151487A1, “Method and reagents for epithelial barrier formation and treatment of malignant and benign skin disorders by modulating the notch pathway” (Loyola University Chicago, priority 2000, published 2002).

Experiments:
IKKα = IKKα immunocomplex kinase assay; type: cell-based, human; settings: for kinase activity of IKKα: substrate GST-IκBα (1-54), after 30 and 60 minutes
Experimental: For immunoprecipitation 2 μg of anti-IKKα and anti-IKKβ were added to the whole cell lysate for 2 hours on ice. 30 μl of protein A-G sepharose beads were added and incubated at […] for 90 minutes. Beads were washed 3 times in wash buffer, and the beads were boiled with 2xSDS sample buffer. Kinase activity was performed using GST-IκBα as substrate (Hu et al., Science, 284, 316-20 (1999)).

epidermal equivalents = test: Living epidermal equivalent model system; type: cell-based, human; settings: for terminal differentiation and cornification: continuously submerged cultures, 4 days later
Experimental: Reconstituted epidermis, known as epidermal equivalents were purchased from MatTek Corp., Ashland, Mass.
(§1) Portions of the epidermal equivalents were fixed in 10% neutral buffered formalin, embedded in paraffin and routinely stained with 1% hematoxylin and eosin. […] When using Lab Tek cultures, these slides were rinsed in PBS and fixed with ice-chilled acetone for 10 mins prior to addition of primary antibodies. Cryostat sections of skin also were fixed using ice-cold acetone. In all cases, a highly sensitive avidin biotin peroxidase procedure (Vectastain Kit, Vector Labs, Burlingame, Calif.) was used with a positive red reaction product obtained using […] as the chromagen.
For these experiments a living epidermal equivalent model system was used, because it provided an opportunity to examine the individual components of the Notch pathway (i.e. Notch ligand and receptors) before, and after, induction of differentiation for keratinocytes maintained in a multi-layered or stratified configuration that closely resembles normal human skin. Epidermal equivalents consist of keratinocytes grown to produce a multi-layered structure that are initially prepared using submerged keratinocytes. Following this initial preparation, the cultures are exposed to an air-liquid interface in a moistened chamber for three days that can initiate the early stage of differentiation, designated as day 0. Under these conditions, approximately 5-7 layers are produced with a progressive flattening of the top level keratinocytes, which can include occasional cells with keratohyalin granules, and focal appearance of loricrin positive cells and corneocytes. When cultures arrived at day 0, they can either be re-submerged in medium or lifted-up and maintained on a support to create an air-liquid interface within a tissue culture well. After lifting of the cultures, the multi-layered keratinocytes are exposed to the air, with the subjacent membrane being moistened and fed only from the underlying medium within the well. Lifting the cultures at day 0, triggers the terminal differentiation process, which typically is completed within about 5 to about 7 days.

keratinocytes = test: Terminal differentiation of cultured keratinocyte monolayers; type: cell-based, human; settings: for loricrin and involucrin immunostaining: 2 mM calcium keratinocyte cultures; for stratification of keratinocyte monolayer: 2 mM calcium, as early as 3 days following addition
Experimental: (§2) Keratinocyte cultures were initiated from discarded neonatal foreskins, in which epidermis was separated from dermis using dispase (Mukherjee et al, Chemical and Structural Approaches to Rational Drug Design (Weiner et al., eds.) CRC Press, pp. 237-61 (Boca Raton, 1994). Keratinocytes were induced to proliferating using a low calcium (0.07 mM), serum-free medium (KGM, Clonetics Corp., San Diego, Calif.). Keratinocytes were grown in 10 cm plastic petri dishes, and passaged at 60-70% confluency, and maintained in a humidified incubator at 37° C. with 5% CO2. Keratinocytes were also grown in 8-well Lab Tek Chambers as previously described (Mukherjee et al., supra). Keratinocytes were used between 2 and 4 passages. In some experiments, keratinocytes were pre-treated with KGM containing an elevated calcium ion concentration (i.e. 2 mM) for 24 hrs prior to addition of JAG-1 peptide, or other stimuli as indicated.
as §1

Cytotoxicity = type: cell-based; settings: concentrations <300 nM
Notch-1 = test: Western blotting for Notch-1 in MOM-2b cells; type: cell-based; settings: 100 nM
Experimental: Two cultures of MOM-2b cells (an aggressive melanoma cell line) were cultured in standard medium alone or in the presence of 100 nM of a gamma secretase inhibitor, which interferes with Notch signaling (Supont Compound E; Seiffaert et al., J. Biol. Chem., 275, 34086 (2000)). The cells then were lysed and assayed for the presence of Notch-1 by Western blotting.

MOM-2b cells = test: Invasion through MATRIOEL coated filters; type: cell-based; settings: MOM-2b cells pretreated overnight with 100 nM
Experimental: In a second experiment, MOM-2b cells were pretreated overnight with 100 nM compound E or untreated culture medium and then analyzed for invasive behavior by culturing them on MATRIOEL™ coated filters, into which aggressive melanoma will invade. After 20 hours, cells that have not invaded through the filters were discarded and cells that had migrated into the top of the filters were stained, lysed, and then assayed for absorbance at 350 nm to quantitate the number of cells that had invaded through the filter.

PKC-alpha = PKC-alpha localization in keratinocytes; type: cell-based, human
Experimental: as §1

p50 and p65 subunits = test: Western blot of keratinocyte nuclei for NF-κB subunits; type: cell-based, human; settings: keratinocytes in 2 mM calcium; 30 minutes and 1 hour after addition
Experimental: (§3) Whole cell lysates, or nuclear and cytoplasmic extracts, were prepared to detect different proteins as previously described (Chaturvedi et al., J. Biol. Chem., 274, 2358-67 (1999)). Briefly, keratinocytes were washed with ice cold phosphate buffered saline (PBS), and harvested by scraping the monolayers into 1 ml PBS, and pelleted in a […] microcentrifuge tube. The cell pellet was suspended in 400 μl of buffer A (10 mM HEPES, 10 mM KCl, 1 mM EDTA, 1 mM EGTA, 1 mM dithiothreitol, 0.5 mM phenylmethlysulfonyl fluoride, and 5 μg/ml leupeptin). After 20 min incubation on ice, 25 μl of 10% Nonidet P-40 was added and then centrifuged briefly. The supernatant represented the cytoplasmic extracts. The nuclear pellet was resuspended in 60-80 μl of buffer C (20 mM HEPES, 0.4 M NaCl, 1 mM EDTA, 1 mM EGTA, 1 mM dithiothreitol, 0.5 mM phenylmethylsulfonyl fluoride, and 5 μg/ml leupeptin) and incubated at 4° C. with shaking for 15 min. The nuclear debris was removed by centrifugation at 4° C.
(§4) For the whole cell lysate, cells were washed with cold PBS and incubated in CHAPS buffer on ice for 15 min. After centrifugation at 4° C., the supernatants were saved as whole cell lysate. The protein concentration of each sample was determined with Bio-Rad protein assay reagent. […]

IκBα = test: Western blot of keratinocyte cytoplasmic extracts for IκB proteins; type: cell-based, human
Experimental: as §3
For the whole cell lysate, cells were washed with cold PBS and incubated in CHAPS buffer on ice for 15 min. After centrifugation at 4° C., the supernatants were saved as whole cell lysate. The protein concentration of each sample was determined with Bio-Rad protein assay reagent. 30 μg of protein were loaded on 8-12.5% SDS-polyacrylamide gel, transferred to Immobilon-P (polyvinylidene difluoride) membrane and blocked in 5% powdered milk in TBST (50 mM Tris, pH 7.5, 150 mM NaCl, 0.01% Tween 20). The membrane was incubated with primary antibody overnight at 4° C. in 2.5% powdered milk in TBST and then was washed extensively with TBST, and incubated with 1:1500 anti-rabbit or mouse-HRP (Amersham Pharmacia Biotech). Proteins were visualized with the ECL detection kit (Amersham Pharmacia Biotech). The equivalent loading of proteins in each well was confirmed by Ponceau staining.

[1] = test system: Jagged-1 and Notch receptors; test: Immunostaining of cultured keratinocyte monolayers for Jagged-1 and Notch receptors; type: cell-based, human
Experimental: as §2, §1

Notch 1 = test: Western blot for Notch 1 in keratinocytes; type: cell-based, human; settings: 6 hours and 24 hours after addition
Experimental: as §3, §4

NF-κB [2] = test: NF-κB luciferase assay in transfected keratinocytes; type: cell-based, human
Experimental: as §2
To perform the luciferase-based NF-κB assays, normal keratinocytes were seeded in 6-well plates as previously described (Qin et al., supra). At approximately 50% to 60% confluence, the cells were co-transfected with 0.8 μg of pNF-κB-LUC vector (CLONTECH Laboratories, Palo Alto, Calif.) containing a firefly luciferase gene with K enhancer and 0.2 μg of PRL-TK plasmid DNA which contains Renella Luciferase gene to normalize the transfection efficiency. The same amount of control vector in which the κ enhancer was removed from pNF-κB-LUC was also used to co-transfect the cells.
DNA was transfected into keratinocytes using Fu-Gene 6 Transfection Reagent (Roche Molecular Biochemicals) according to the manufacturer's protocol. After 36 hours of transfection, cells were treated with either TNF-α (10^3 U/ml; R&D Systems, Minneapolis, Minn.) or the indicated peptides.
The preparation of cell lysate and luciferase activity measurements were made with DUAL LUCIFERASE™ Reporter Assay System (Promega, Madison Wis.) according to the manufacturer's instructions. The sample was placed in a TD-20/20 luminometer (CLONTECH Laboratories) for detection of light intensity.

NF-κB [3] = test: Electromobility shift assay (EMSA) of keratinocyte nuclear extracts; type: cell-based, human; settings: heterodimers p50 and p65 and p50/p50 homodimers
Experimental: EMSA were done as described previously (Qin et al., supra). 5 μg of nuclear proteins were incubated on ice with 1 μg of poly(dI-dC) (Amersham Pharmacia Biotech) in a buffer containing 10 mM HEPES, 60 mM KCl, 1 mM dithiothreitol, 1 mM EDTA, and 4% Ficoll for 10 min. The ^32P-labeled double strand NF-κB binding oligonucleotide (10^5 cpm) was then added to the reaction mixture for an additional 20 min on ice. The NF-κB oligonucleotide had the following sequence: SEQ ID NO:14 (5′-[…]-3′). For experiments involving supershift analysis, 2-4 μg of polyclonal antibodies against different subunits of NF-κB (Santa Cruz Biotech) were incubated with nuclear proteins for 30 min on ice prior to addition of ^32P-labeled NF-κB probe. All the reaction mixtures were resolved on 4% polyacrylamide gels.

[4] = re-submerged day 0 cultures, observed on day 5

For “SC-JAG: scrambled control peptide without agonist activity (SEQ ID NO:13) (RCGPDCFDNYGRYKYCF; Scrambled JAG peptide) [reference compound]”, the “kinase activity of IKKα” value (IKKα) was “little effect” and the “terminal differentiation and cornification” value (epidermal equivalents; 40 μM added on day 0) was “not”.
With “R-JAG: second peptide with agonist activity (SEQ ID NO:12) derived from the same region of Jagged-1, with specific amino acid changes (CDDYYYGFGCNKFGRPRDD; r-JAG1 Notch ligand)” the “kinase activity of IKKα” value (IKKα) was “did activate”, the “terminal differentiation and cornification” value (epidermal equivalents; 40 μM added on day 0) was “triggered terminal differentiation and cornification” and the “loricrin and involucrin immunostaining” value (keratinocytes) was “strong induction”. The “stratification of keratinocyte monolayer” value (keratinocytes) was “began piling-up to form 3-dimensional stratified clusters”.
In the case of `C[C@H](NC(=O)Cc1cc(F)cc(F)c1)C(=O)N[C@H]1N=C(c2ccccc2)c2ccccc2N(C)C1=O` [compound E], the cytotoxicity (Cytotoxicity) is reported as “did not exhibit cytotoxicity”, the “activation of Notch-1” value (Notch-1) is reported as “completely blocked” and the “OD350 (cells invaded through the filter)” value (MOM-2b cells; after 20 hours) is reported as 0.378. For the same molecule, the “inhibition of aggressive behavior in melanoma cells” value (MOM-2b cells; versus control culture) was 75%.
For “JAG-1: synthetic peptide with Notch agonist activity corresponding to Jagged-1 residues 188-204 (SEQ ID NO:11), part of the DSL region (CDDYYYGFGCNKFCRPR; JAG-1 Notch ligand)”, the PKC-alpha localization (PKC-alpha; epidermal equivalents, upper layers of differentiated keratinocytes) was “plasma membrane localization for PKC-alpha”, the “PKC-alpha translocation (PKC activation)” value (PKC-alpha; keratinocyte monolayers) was “induced translocation of PKC-alpha from the cytoplasm to the plasma membrane” and the “intranuclear levels of p50 and p65 subunits” value (p50 and p65 subunits) was “markedly enhanced intranuclear levels”. The “relatively low constitutive level of IκBα” value (IκBα; 7-minute to 6-hour time points) was “slightly reduced”, the “cytoplasmic IκBα level (most prominent inhibitory protein)” value (IκBα; after 24 hours) was “no consistent decline” and the “relatively low constitutive level of IκBα” value (IκBα; after 24 hours) was “became undetectable”. The “amount of IKKα present” value (IKKα; immediately following stimulation) was “not accompanied by any significant change”, the “kinase activity of IKKα” value (IKKα) was “did activate” and the Notch-1 cellular localization ([1]; 24 hours after stimulation) was “re-distributed to the cytoplasm”. The “Notch 3 immunolocalization” value ([1]; after addition of peptide) was “disappearance of both membrane and cytosolic Notch 3”, the “Notch 4 immunolocalization” value ([1]; after peptide stimulation) was “loss of membrane and cytosolic Notch 4” and the Jagged-1 cellular localization ([1]; keratinocytes in 2 mM calcium, twenty-four hours after addition) was “loss of this plasma membrane staining”. For the same molecule, the “Notch 1 levels” value (Notch 1) was “decreased to barely detectable levels”, the “terminal differentiation and cornification” value (epidermal equivalents; 50 μM added on day 0) was “triggered terminal differentiation and cornification” and the “apoptosis in submerged epidermal equivalent” value (epidermal equivalents; [4]) was “reduced the apoptotic process”. The “loricrin expression in submerged epidermal equivalent” value (epidermal equivalents; [4]) was “diffuse loricrin expression”, the “stratum corneum formation in submerged epidermal equivalent” value (epidermal equivalents; [4]) was “thick stratum corneum layer” and the “NF-κB activation (luciferase)” value (NF-κB [2]; high calcium (2 mM) medium) was “did trigger NF-κB activation”. For the same molecule, the “NF-κB activation (luciferase)” value (NF-κB [2]; low calcium (0.07 mM) medium) was “not low calcium conditions”, the “NF-κB transcriptional activity (binding to NF-κB probe)” value (NF-κB [3]) was “can activate NF-κB transcriptional activity” and the “loricrin and involucrin immunostaining” value (keratinocytes) was “strong induction”. The “stratification of keratinocyte monolayer” value (keratinocytes) was “began piling-up to form 3-dimensional stratified clusters”.
For TNF-α [reference compound], the “kinase activity of IKKα” value (IKKα) was “little effect”, the “NF-κB activation (luciferase)” value (NF-κB [2]; high calcium (2 mM) medium) was “positive control for NF-κB activation” and the “NF-κB activation (luciferase)” value (NF-κB [2]; low calcium (0.07 mM) medium) was “positive control for NF-κB activation”.
